In US20020173036A1, “Cell line and method of making and using same” (priority 2001, published 2002):

How the values were obtained:
PKC-α [1] = biological target: T1, PKC-α (Homo sapiens, UniProt P17252); assay: PKC-α Western blot of cytosolic and particulate fractions; type: cell-based; conditions: CAC-1 cells; for amount of PKC-α in the cytosolic fraction / amount of PKC-α in the particulate fraction: 1 μM, 90 min
T1 construct: Cytosolic and particulate fractions were prepared from CAC-1 cells and 30 μg of protein/lane was applied to SDS/PAGE and PKC-α detected by immunoblotting; endogenous in cells
Method: Confluent 100 mm dishes of CAC-1 cells in the exponential phase of growth (70-80% maximum density) were treated for 90 min with media alone or 1 μM doses of all-trans or 13-cis retinoic acid, corresponding amounts of ethanol (vehcile control) or with TPA for 20 min to activate PKC-α. Cytosolic and particulate fractions of cells were isolated as described previously (Carter, et al., 1998) and changes in PKC-α were analyzed by Western blot analysis using methods described previously and a primary antibody from Transduction Laboratories (Carter, et al., 1998).

CAC-1 cells [2] = assay: Cell detachment assay; type: cell-based, human; conditions: 1 μM, 24 hrs at 37° C.
Method: CAC-1 cells were plated onto 35 mm plastic tissue culture dishes at 100,000 cells per dish and allowed to attach for 7 days. For analysis of the retinoic acid effects on cell attachment, cell detachment assays were performed using the methods of Guo, et al., 1995. Cells were exposed to media alone (controls), 1 μM 13-cis retinoic acid, […] retinoic acid or corresponding doses of ethanol alone in culture media alone (vehicle control) for 24 hrs at 37° C. prior to cell counting. The assays were performed in duplicate. Cells were rinsed twice with sterile HBSS and exposed to 0.5% trypsin/EDTA (Gibco, BRL) for 10 min with constant agitation on a rocker set at 120 rpm's. The media containing the detached cells was collected. Detached cells from each dish were counted using a hemacytometer and the mean calculated and graphed using Cricket Graph. Statistics were performed using StatMost, (DataMost Corporation, Sandy, Utah). Statistical analysis was performed using one way analysis of variance-(ANOVA).

CAC-1 cells [3] = assay: Retinoic acid treatment and F-actin staining with cell size measurement; conditions: 1 μM, 90 min at 37° C.; for mean cell size relative to cells only exposed to media or ethanol: 25 cells per group; for cell enlargement and actin filament reorganization (F-actin staining): CAC-1 cells at passage 12
MARCKS = MARCKS immunostaining (subcellular localization); type: cell-based, human; conditions: 90 min at 37° C.
Method: (§1) Cells were treated as described for the growth culve for 90 min at 37° C. Prior to MARCKS staining some cells were treated with 14 nM bisindolylmaleimide (Calbiochem, La Jolla, Calif.) for 90 min at 37° C. in order to down-regulate PKC isoforms. Cells were immunostained for PKC-α using an immunofluorescent assay kit and instructions from Research and Diagnostics (Berkley, Calif.) as described previously by Carter, et al., 1998. For MARCKS staining, cells were fixed and permeabilized as described for F-actin visualization and exposed to an anti-MARCKS mouse monoclonal IgG antibody (Upstate Biotechnology, Lake Placid, N.Y.) diluted 1:400 in 1% Bovine Serum Albumin and 0.5% nonfat dry milk (Carnation) in PBS for 1 hr at 37° C. […] Cells were rinsed, mounted and observed as described for actin staining.

PKC-α [4] = biological target: T1, PKC-α; assay: PKC-α immunostaining (subcellular localization); type: cell-based; conditions: 1 μM, 90 min at 37° C.
Method: as §1

hematopoietic cells = conditions: cited from earlier work

| amount of PKC-α in the cytosolic fraction (PKC-α [1]) | amount of PKC-α in the particulate fraction (PKC-α [1]) | Compound | decrease in cell detachment compared to controls (CAC-1 cells [2]) | mean cell size relative to cells only exposed to media or ethanol (CAC-1 cells [3]) | cell enlargement and actin filament reorganization (F-actin staining) (CAC-1 cells [3]) | MARCKS localization (MARCKS; 1 μM) | PKC-α localization (PKC-α [4]) | PKC-α distribution between cytosolic and particulate fractions (PKC-α [1]; 100 nM TPA for 20 min) | decrease in mean F-actin content (hematopoietic cells) [%] | MARCKS localization (MARCKS; 14 nM) |
| --- | --- | --- | --- | --- | --- | --- | --- | --- | --- | --- |
| slight increase | decrease | CC1=C(/C=C/C(C)=C/C=C/C(C)=C\C(=O)O)C(C)(C)CCC1 [13-cis retinoic acid] | around 40% | twice the size | cells enlarged and actin filaments were apparent | MARCKS localized to the plasma membrane | localize exclusively to the cytoplasm occurring predominantly in perinuclear regions |  |  |  |
| slight increase | decrease | CC1=C(/C=C/C(C)=C/C=C/C(C)=C/C(=O)O)C(C)(C)CCC1 [all-trans retinoic acid] | around 40% | twice the size | cells also enlarged and actin filaments were prominent throughout the cells | MARCKS localized to the plasma membrane | localize exclusively to the cytoplasm occurring predominantly in perinuclear regions |  |  |  |
|  |  | CCCCCCCCCCCCCC(=O)O[C@@H]1[C@@H](C)[C@@]2(O)[C@@H](C=C(CO)C[C@]3(O)C(=O)C(C)=C[C@@H]23)[C@@H]2C(C)(C)[C@]12OC(C)=O [TPA, 12-O-tetradecanoylphorbol-13-acetate] |  |  |  |  |  | most of the PKC-α was present in the particulate fraction | 32 |  |
|  |  | bisindolylmaleimide |  |  |  |  |  |  |  | MARCKS staining was prominent in the plasma membrane |
